Measured values as given in ChEMBL document CHEMBL1201862, “PubChem BioAssay data set” (2004).
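Grown in 96-well plates, cells were treated for 48 hours with each compound at five concentrations. Insufficient inhibition: endpoint recorded as highest concentration tested. Here, GI50 denotes the concentration required for 50% inhibition of growth.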 Active and inactive are the calls of the source. Rule as the data show it: active = GI50 up to about 1.1 µM and inactive = higher. Numbered stars: 1 amine (or outer) side, 2 acyl side, 3 side chain; on linkers, the order of the positions; unused ones are H or OH. Bridge positions count the residues as written; N and C are the ends. Square brackets hold non-standard residues; d marks the D form. Peptide text beside a SMILES is read from it. * marks the point of attachment. ξ: configuration not given here. X33 = O=C(C(CCCCNO[*:3])N[*:1])[*:2]; Fmoc = O=C(OCC1c2ccccc2-c2ccccc21)*; ξW = NC(Cc1c[nH]c2ccccc12)C(=O)O; ξP = O=C(O)C1CCCN1

Experiments:
Test in all cases: inhibition of tumour cell growth, NCI panel, 48 h
K562 = system: K562
KM12 = system: KM12
A549 = system: A549
M14 = system: M14
NCI-H522 = system: NCI-H522
ACHN = system: ACHN
OVCAR-8 = system: OVCAR-8
IGROV-1 = system: IGROV-1
HCT-15 = system: HCT-15
LOX IMVI = system: LOX IMVI
COLO 205 = system: COLO 205
SF-539 = system: SF-539
SF-268 = system: SF-268
786-0 = system: 786-0
HOP-62 = system: HOP-62
SR = system: SR
HL-60 = system: HL-60
SNB-19 = system: SNB-19
MCF7 = system: MCF7
MDA-N = system: MDA-N

Row | SMILES | GI50 (K562) | GI50 (KM12) | GI50 (A549) | GI50 (M14) | GI50 (NCI-H522) | GI50 (ACHN) | GI50 (OVCAR-8) | GI50 (IGROV-1) | GI50 (HCT-15) [µM] | GI50 (LOX IMVI) | GI50 (COLO 205) | GI50 (SF-539) | GI50 (SF-268) | GI50 (786-0) | GI50 (HOP-62) | GI50 (SR) | GI50 (HL-60) | GI50 (SNB-19) | GI50 (MCF7) | GI50 (MDA-N)
1 | CCOc1ccc(/C(Cl)=C(\C=O)c2ccc(OC)c(OC)c2)cc1OCC | 23.5 µM (inactive) | 91.4 µM (inactive) | 46.9 µM (inactive) | > 100 µM (inactive) | 18.2 µM (inactive) | 37.1 µM (inactive) | 46.8 µM (inactive) | > 100 µM (inactive) | 28.3 | 64.1 µM (inactive) | 61.5 µM (inactive) | 48.9 µM (inactive) | 63.8 µM (inactive) | 64.9 µM (inactive) | 30.1 µM (inactive) | 20.3 µM (inactive) | 21.7 µM (inactive) | 55.3 µM (inactive) |  | 
2 | N#CC(c1ccccc1)c1cccc2ccccc12 (stereo unspecified) | 26 µM (inactive) | 21.8 µM (inactive) | 20.1 µM (inactive) | 30.6 µM (inactive) | 22 µM (inactive) | 44.8 µM (inactive) | 27.4 µM (inactive) | 19.9 µM (inactive) | 37.9 | 21.3 µM (inactive) | 40.8 µM (inactive) | 30.6 µM (inactive) | 19.9 µM (inactive) | 69.5 µM (inactive) | 90.2 µM (inactive) | 12.3 µM (inactive) | 21.1 µM (inactive) | 53.5 µM (inactive) | 33.6 µM (inactive) | 
3 | ClCc1ccc(C2OCCO2)cc1 | > 31.6 µM (inactive) | 12.8 µM (inactive) | > 51.4 µM (inactive) | 13.6 µM (inactive) | 14.8 µM (inactive) | > 42.4 µM (inactive) | 17.5 µM (inactive) | > 72.4 µM (inactive) | 16.7 | 7.23 µM (inactive) | 19.1 µM (inactive) | > 42.3 µM (inactive) | > 100 µM (inactive) | 23.3 µM (inactive) | 24.9 µM (inactive) | 11.1 µM (inactive) | 3.36 µM (inactive) | > 43 µM (inactive) |  | 
4 | Cn1c(C(C#N)c2cc(Cl)ncn2)nc2ccccc21 (stereo unspecified) |  | > 100 µM (inactive) | > 100 µM (inactive) | > 100 µM (inactive) | > 100 µM (inactive) | > 100 µM (inactive) | > 100 µM (inactive) | > 100 µM (inactive) | > 100 | > 100 µM (inactive) | > 100 µM (inactive) | > 100 µM (inactive) | > 100 µM (inactive) | > 100 µM (inactive) | > 100 µM (inactive) |  |  | > 100 µM (inactive) |  | > 100 µM (inactive)
5 | COC1CCC(OS(C)(=O)=O)C(CO)O1 (stereo unspecified) | > 100 µM (inactive) | > 100 µM (inactive) | > 100 µM (inactive) | > 100 µM (inactive) | > 100 µM (inactive) | > 100 µM (inactive) | > 100 µM (inactive) | > 100 µM (inactive) | > 100 | > 100 µM (inactive) |  | > 100 µM (inactive) |  | > 100 µM (inactive) | > 100 µM (inactive) | > 100 µM (inactive) | > 100 µM (inactive) |  |  | 
6 | O=C1Nc2cccc3cc(NCC(O)CCl)cc1c23 (stereo unspecified) | 91.2 µM (inactive) | 35.2 µM (inactive) | 56.9 µM (inactive) | 56.1 µM (inactive) | 59.2 µM (inactive) | 30.3 µM (inactive) | 48.9 µM (inactive) | 59 µM (inactive) | 48.9 | 27.3 µM (inactive) | 77.4 µM (inactive) |  | 38.4 µM (inactive) | 55 µM (inactive) | 49.9 µM (inactive) | 11.7 µM (inactive) | > 100 µM (inactive) | 53.6 µM (inactive) | 45.7 µM (inactive) | 
7 | CCNC(=O)COc1ccc(Cl)cc1Cl | > 100 µM (inactive) | > 100 µM (inactive) | > 100 µM (inactive) | > 100 µM (inactive) | > 100 µM (inactive) | > 100 µM (inactive) | > 100 µM (inactive) | > 100 µM (inactive) | > 100 |  | > 100 µM (inactive) | > 100 µM (inactive) | > 100 µM (inactive) | > 100 µM (inactive) | > 100 µM (inactive) | > 100 µM (inactive) | > 100 µM (inactive) | > 100 µM (inactive) |  | 
8 | CS/C(=N\c1ccccc1Cl)NC(=O)c1ccc(Br)cc1 | 14.9 µM (inactive) | > 100 µM (inactive) | 55.8 µM (inactive) | 24.6 µM (inactive) | 40.6 µM (inactive) | > 100 µM (inactive) | > 100 µM (inactive) | 62.8 µM (inactive) | > 100 | > 100 µM (inactive) | > 100 µM (inactive) | 37.2 µM (inactive) | 59.8 µM (inactive) | 27.1 µM (inactive) | 21.3 µM (inactive) | 40.5 µM (inactive) | 34 µM (inactive) | 33.1 µM (inactive) |  | 
9 | O=C(Nn1c(-c2ccccc2)nc2ccccc2c1=O)c1ccccn1 | 78.5 µM (inactive) | 83.6 µM (inactive) | > 100 µM (inactive) | > 100 µM (inactive) | 72.8 µM (inactive) | > 100 µM (inactive) | 64.4 µM (inactive) | > 100 µM (inactive) |  | > 100 µM (inactive) | > 100 µM (inactive) | 43.7 µM (inactive) | > 100 µM (inactive) | > 100 µM (inactive) | > 100 µM (inactive) | > 100 µM (inactive) | 71.4 µM (inactive) | > 100 µM (inactive) |  | 
10 | Cc1ccccc1NC(=O)/C(=N\NC(N)=S)C(C#N)c1ccccc1 (stereo unspecified) | > 100 µM (inactive) | > 100 µM (inactive) | > 100 µM (inactive) | > 100 µM (inactive) | > 100 µM (inactive) | > 100 µM (inactive) | > 100 µM (inactive) | > 100 µM (inactive) | > 100 | > 100 µM (inactive) | > 100 µM (inactive) | > 100 µM (inactive) | > 100 µM (inactive) | > 100 µM (inactive) | > 100 µM (inactive) | > 100 µM (inactive) | > 100 µM (inactive) | > 100 µM (inactive) |  | 
11 | O=C(O)CN1C=C(C(=O)c2cc3ccccc3n2S(=O)(=O)c2ccccc2)CCC1 | 24.2 µM (inactive) | 37.1 µM (inactive) | 68.1 µM (inactive) | 69.8 µM (inactive) |  | 29.6 µM (inactive) | 64.6 µM (inactive) | 37.2 µM (inactive) | 49.2 | 64.9 µM (inactive) | 20.9 µM (inactive) | 39.7 µM (inactive) | > 100 µM (inactive) | 50.7 µM (inactive) | > 100 µM (inactive) | 36.4 µM (inactive) | 32.2 µM (inactive) | > 100 µM (inactive) | 49.9 µM (inactive) | 
12 | NC(=O)CNC(=O)C1CCCN1C(=O)C1CCCCNOC(=O)CC[C@@H](NC(=O)OCC2c3ccccc3-c3ccccc32)C(=O)NC(Cc2c[nH]c3ccccc23)C(=O)N1 (stereo partly specified) (Fmoc-[dE][ξW][X33][ξP]G-NH2; ester 1-3) | > 100 µM (inactive) | > 100 µM (inactive) | > 100 µM (inactive) | 64.4 µM (inactive) | > 100 µM (inactive) | > 100 µM (inactive) | > 100 µM (inactive) | > 100 µM (inactive) | > 100 | > 100 µM (inactive) | > 100 µM (inactive) | > 100 µM (inactive) | > 100 µM (inactive) | > 100 µM (inactive) | > 100 µM (inactive) | > 100 µM (inactive) | > 100 µM (inactive) | > 100 µM (inactive) | > 100 µM (inactive) | 
